Laboratory results as given in patent publication US5179109A (priority 1988, dated 1993).

Assays:
[1] = biological target: cerebral cholinergic muscarinic receptor; format: binding, rat; details: for IC50: rat brain homogenate, read-out: ^3 HQNB IC50; for ^3 HQNB/^3 HTCP: ratio of IC50
site of PCP = test: Affinity for the PCP site, competition with (^3 H)PCP on rat brain homogenates; format: binding; details: rat brain homogenate, pH 7.7, 25° C., 1 nmole tritiated ligand
[2] = Subcutaneous LD50 in the rat; details: in vivo, sc
Swiss mice = test: Simple rotary bar test (dose at which 50% of the animals drop); format: in vivo; details: Mus musculus, sc; Swiss mice, subcutaneous, dose at which 50% of the animals drop; read-out: ED50
Description: In this example, the properties of compounds 1 to 5 and 8 to 11 are tested on Swiss mice.
Different doses of the compounds to be tested are administered subcutaneously to the mice and the latter are then placed in batches of 10 on a rotary bar, being separated from one another by separating disks. This bar is made from scraped wood, has a diameter of 3 cm and is moved horizontally with a uniform circular movement about its axis at a speed of 10 rpm.
Determination takes place of the ED50, which is the dose at which 50% of the animals drop, the dose being expressed in mg/kg.

[3] = test system: pyramidal cells Ca3 of Ammon's horn; test: Cerebral aging in mice, histology of the hippocampus; format: in vivo; details: 5 mg/kg intraperitoneal at 23rd, 24th and 25th months; 26th month
Description: (§1) This example illustrates the effect of arylcyclohexylamines on cerebral aging. No matter what the cause of the cerebral aging (vascular or degenerative), it leads to a neuronal loss at the cerebral cortex, the hippocampas and to a lesser extent the cerebellum. This cellular loss can be quantified by simple histological methods and evaluated on a larger scale by means of semi-automatic image analysis methods.
(§2) In this example 6 mice aged 23 months by intraperitonealy injecting 3 of them with 5 mg/kg of TCP in the physiological solute at the 23rd, 24th and 25th months and 3 other mice were intraperitonealy injected with the physiological solute only. At the 26th month, all the mice were sacrificed by intracardial perfusion of a 5% glutaraldehyde solution, the brains were cut up with the vibratone and the sections dyed by the NISSL method.
(§3) The results obtained are given in FIGS. 2 to 5, which are sections of the brain and the cerebellum of the treated mice and the untreated control mice.

[4] = test system: cortical and hippocampal neurons; test: In vitro neuron culture survival after 2 months, count of neurons (Example 23); format: cell-based, rat; details: single dose at start of third week; TCP 2.5 and 20, compound 9 and MK801 2.5 and 5 μmole/l; control 50 neurons/mm^2
Description: This example also illustrates the effect of the arylcyclohexylamines according to the invention on the in vitro neuron culture survival. As in example 21, cortical and hippocampal neuron cultures are prepared. At the start of the third culturing week, the cells are treated with a single dose of the compound to be tested and culturing is continued for two months. At the end of this period, the cells which were fixed and dyed to reveal the specific enolase of the neurons are subject to counts in order to determine the quantity of cells per surface unit.
The results obtained are given in FIG. 1, which is a histogram indicating the number of cells/mm^2 which survived after 2 months culturing.
The results are given for the control, i.e. for untreated cultures, cultures treated with 2.5 and 20 μmole/l of TCP, cultures treated by compound no. 9 at concentrations of 2.5 and 5 μmole/l and cultures treated by compound MK801 at concentrations of 2.5 and 5 μmole/l. Compound MK801, which is known to have a neuroprotection activity, is (+)-methyl-5-dihydro-10,11(5H)dibenzo(A,D) cyclohepteneimine-5,10 of formula: [drawing 38] From FIG. 1 it can be seen that the control cultures, after surviving for 2 months, on average contain 50 neurons/mm^2. The treated cultures, no matter what the compound and dose used, contain more than 500 neurons/mm^2.

receptor of the opiates = biological target: T1, receptor of the opiates (Rattus norvegicus, UniProt P33535); test: Competition test with ^3 H-DHM for the receptor of the opiates; format: binding
T1 construct: variable concentrations of the tested compound and a rat brain homogenate; from tissue; host or cells: rat brain homogenate
T1 sequence (P33535 whole entry): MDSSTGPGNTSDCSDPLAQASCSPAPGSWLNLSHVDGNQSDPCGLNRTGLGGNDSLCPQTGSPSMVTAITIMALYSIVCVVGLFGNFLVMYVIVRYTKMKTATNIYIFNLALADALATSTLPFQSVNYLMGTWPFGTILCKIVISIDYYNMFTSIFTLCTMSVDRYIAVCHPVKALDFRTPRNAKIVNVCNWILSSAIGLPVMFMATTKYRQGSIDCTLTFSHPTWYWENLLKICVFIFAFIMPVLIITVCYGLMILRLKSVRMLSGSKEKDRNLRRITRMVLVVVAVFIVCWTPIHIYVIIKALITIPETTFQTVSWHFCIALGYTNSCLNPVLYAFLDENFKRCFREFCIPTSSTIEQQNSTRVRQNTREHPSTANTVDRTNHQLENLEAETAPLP
Description: In this test, a fixed concentration of ^3 H-DHM labelled morphine was incubated in the presence of variable concentrations of the tested compound and a rat brain homogenate. The concentration of the compound preventing the fixing of 50% of ^3 H-DHM (IC50) is a measure of the affinity of the compound for the receptor of the opiates. The latter also gives the results obtained with PCP and TCP, as well as the ratios H^3 DA/^3 H-TCP, ^3 HQNB/^3 H-TCP and ^3 HDHM/^3 HTCP obtained with the different tested compounds.

site of TCP = test: Affinity for the TCP site, competition with (^3 H)TCP on rat brain homogenates; format: binding; details: rat brain homogenate, pH 7.7, 25° C., 1 nmole tritiated ligand; read-out: ^3 HTCP IC50
Purkinje cells = test: Cerebral aging in mice, histology of the cerebellum; format: in vivo; details: 5 mg/kg intraperitoneal at 23rd, 24th and 25th months; 26th month
Description: as §1, §2, §3

[5] = test system: synaptosomal striatal (^3 H)DA capture; test: Inhibition test of the synaptosomal striatal sample (capture) of (^3 H)DA; format: biochemical, Wistar rats
Description: This test is carried out according to the method used by Vignon and Lazdunski operating in the following way. Wistar rats weighing 200 to 250 g are killed by cervical dislocation. Their brains are rapidly removed and the striae dissected on ice. The striae are then homogenized with a Teflon glass Potter homogenizer in 50 volumes of tris HCl 10 mM buffer containing 0.32M of sucrose at pH 7.4 and they are centrifuged at 1000 g for 10 min. The supernatants are further centrifuged at 10000 g for 20 min. The resulting deposits P2 containing the crude synaptosomes are used without supplementary purification.
The synaptosomes are balanced with the compound to be tested for 30 min at 30° C. in the Ringer medium (mM: 140 NaCl, 5 KCl, 2.6 CaCl2, 1.3 MgSO4, 10 tris-HCl, pH=7.4)+200 μM of pargyline. This is followed by the addition of (^3 H)DA labelled dopamine at a final concentration of 5 nM for 5 min at 30° C. and sampling is interrupted by filtration of the incubate (150 μl) on GF/B filters. The non-specific sample is measured at 4° C. in parallel incubations and is deducted from the total sample at 30° C. The IC50 is the compound concentration preventing 50% of the specific capture compared with the control in the absence of an inhibitor.

For `OCC1CCCN(C2(c3ccccc3)CCCCC2)C1` (centres unmarked) [compound 4, [(hydroxymethyl-3piperidino)-1]-1phenyl-1 cyclohexane], the IC50 [1] was 100 µM, the “^3 HQNB/^3 HTCP” value [1] was 100 and the IC50 (site of PCP) was 1 µM. It also gave an LD50 [2] greater than 60 mg/kg and an ED50 (Swiss mice) of 1.8 mg/kg.

With `c1csc(C2(N3CCCCC3)CCCCC2)c1` [TCP, ((2-thienyl)-1 cyclohexyl)-N-piperidine, reference compound] the IC50 [1] was 21 µM, the “^3 HQNB/^3 HTCP” value [1] was 333 and the IC50 (site of PCP) was 0.026 µM. For the same molecule, the ED50 (Swiss mice) was 2.3 mg/kg, the “rarefaction of the pyramidal cells Ca3 of Ammon's horn versus untreated” value [3] was “much less marked” and the “number of neurons which survived after 2 months culturing” value [4] was “more than 500 neurons/mm^2”. For the same molecule, the IC50 (receptor of the opiates; rat brain homogenate, read-out: ^3 HDHM IC50) was 11 µM, the “^3 HDHM/^3 HTCP” value (receptor of the opiates; ratio of IC50) was 74.6 and the IC50 (site of TCP) was 0.063 µM. The “rarefication of the Purkinje cells at the cerebellum versus untreated” value (Purkinje cells) was “much less significant”, the IC50 ([5]; rat striatal synaptosomes, 5 nM (^3 H)DA, 5 min at 30° C., pH 7.4, read-out: ^3 HDA IC50) was 1.6 µM and the “^3 HDA/^3 H-TCP” value ([5]; ratio of IC50) was 25.39.
